Test [1] deals with TEL-KIT fusion gene transfected cells (Ba/F3). Put plainly: Suppression of proliferation of TEL-KIT fusion gene transfected Ba/F3 cells.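 Note: viable cells quantified via formazan from tetrazolium reduction, inhibition scaled with 0.1% DMSO control as 0% and medium-only blank as 100%, IC50 from two-parameter logistic fit.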 The settings on record: read-out: KIT/BaF3 proliferation inhibition (IC50); TEL-KIT expressing Ba/F3 cells, 72 hours, final concentration 0.1 to 10,000 nM.
From the text: Fabrication of TEL-PDGFRβ and TEL-KIT Fusion Gene Transfected Cells
Subsequently, the vectors for gene transfection were introduced using a transfection reagent (FuGENE6, Promega Corporation) into packaging cells derived from a human fetal kidney cell line, PLAT-E, in the logarithmic growth phase. Since the culture supernatant of PLAT-E after the gene transfection contained virus particles for gene transfection, it was collected and used as a medium for gene transfection. The medium for gene transfection was added to a plate coated with RetroNectin and incubated, and the virus particles were allowed to adhere to the plate. Thereafter, the mouse pro-B cell line Ba/F3 in the logarithmic growth phase was seeded onto the plate and infected with the virus to fabricate cells that proliferate in a PDGFRβ or KIT dependent manner.
The test substance was prepared with dimethyl sulfoxide (DMSO) to 10 mM and diluted with DMSO so as to reach a concentration of 0.0001 to 3 mM. Furthermore, it was diluted by 100 times with distilled water.
Measurement of Suppression Action Against Proliferation of TEL-PDGFRβ or TEL-KIT Expressing Cells
The day after TEL-PDGFRβ and TEL-KIT expressing cells were seeded onto 96 well plates, the prepared test substance solution was added thereto with a final concentration being 0.1 to 10,000 nM. After 72 hours, the viable cell count was measured using the amount of formazan generated from the reduction of a tetrazolium salt compound by the mitochondrial dehydrogenase of viable cells as an indicator.
Based on the amount of formazan in each condition, the suppression rate against cell proliferation was calculated when the amounts of formazan in the negative control (0.1% DMSO solution) and Blank (medium only) were defined as 0% and 100%, respectively. Subsequently, a nonlinear regression analysis with a two parameter logistic model for the log dose and suppression rate against cell proliferation was carried out using the SAS system (SAS Institute Inc.) to estimate the IC50 value.
Test [2] has as its target TEL-PDGFRβ fusion gene transfected cells (Ba/F3). Put plainly: Suppression of proliferation of TEL-PDGFRβ fusion gene transfected Ba/F3 cells. In kind it is cell-based, human. The conditions noted are these: TEL-PDGFRβ expressing Ba/F3 cells, 72 hours, final concentration 0.1 to 10,000 nM; read-out: PDGFR β/BaF3 proliferation inhibition (IC50). The source says: 2. Preparation of Test Substance
4. Analysis of Measurement Results

The next test concerns the target PDGFR-β (Homo sapiens (Human), UniProt P09619). Nature of the test: PDGFR-β tyrosine kinase inhibitory action (HTRF KinEASE-TK). The conditions noted are these: PDGFR-β enzyme 1 ng/μL, 30° C. for 30 minutes; read-out: PDGF-β IC50. In kind it is biochemical. Summed up: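 Recombinant PDGFR-β at 1 ng/μL final with TK substrate-3-biotin in a substrate solution containing 0.6 μM ATP; buffer 50 mM HEPES pH 7.0, 5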

For test [3], the system named is pulmonary arterial smooth muscle cells. Nature of the test: Suppression of proliferation of pulmonary arterial smooth muscle cells (PDGF-BB stimulation, BrdU). In kind it is cell-based. The settings on record: PASMC, read-out: Human normal PASMC proliferation suppression (PDGF stimulation_IC50). The gist of the method: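 Healthy human pulmonary arterial smooth muscle cells, serum-starved a day in 0.1% FBS medium, were treated with compound at final 3 to 10,000 nM plus human PDGF-BB (final 10 ng/mL) and BrdU. After 1 day of culture, BrdU uptake was measured with an anti-BrdU antibody.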

Setting [4] is: human PDGF-BB 10 ng/mL, BrdU uptake, final concentration 3 to 10,000 nM.
[5] abbreviates: 24 h, healthy human derived pulmonary arterial smooth muscle cells, human PDGF-BB 10 ng/mL stimulation, BrdU uptake after 1 day, test substance final concentration 3 to 10,000 nM.

Like-named read-outs stand apart in the source and are kept apart here.

Among the data in patent publication US12509424B2, “Compound and composition as PDGF receptor kinase inhibitor” (NIPPON SHINYAKU CO., LTD., priority 2019, dated 2025) are IC50 values, retold here.

Chain of TEL-PDGFRβ fusion gene transfected cells (Ba/F3) (P09619 33-1106 limits assumed, change not shown): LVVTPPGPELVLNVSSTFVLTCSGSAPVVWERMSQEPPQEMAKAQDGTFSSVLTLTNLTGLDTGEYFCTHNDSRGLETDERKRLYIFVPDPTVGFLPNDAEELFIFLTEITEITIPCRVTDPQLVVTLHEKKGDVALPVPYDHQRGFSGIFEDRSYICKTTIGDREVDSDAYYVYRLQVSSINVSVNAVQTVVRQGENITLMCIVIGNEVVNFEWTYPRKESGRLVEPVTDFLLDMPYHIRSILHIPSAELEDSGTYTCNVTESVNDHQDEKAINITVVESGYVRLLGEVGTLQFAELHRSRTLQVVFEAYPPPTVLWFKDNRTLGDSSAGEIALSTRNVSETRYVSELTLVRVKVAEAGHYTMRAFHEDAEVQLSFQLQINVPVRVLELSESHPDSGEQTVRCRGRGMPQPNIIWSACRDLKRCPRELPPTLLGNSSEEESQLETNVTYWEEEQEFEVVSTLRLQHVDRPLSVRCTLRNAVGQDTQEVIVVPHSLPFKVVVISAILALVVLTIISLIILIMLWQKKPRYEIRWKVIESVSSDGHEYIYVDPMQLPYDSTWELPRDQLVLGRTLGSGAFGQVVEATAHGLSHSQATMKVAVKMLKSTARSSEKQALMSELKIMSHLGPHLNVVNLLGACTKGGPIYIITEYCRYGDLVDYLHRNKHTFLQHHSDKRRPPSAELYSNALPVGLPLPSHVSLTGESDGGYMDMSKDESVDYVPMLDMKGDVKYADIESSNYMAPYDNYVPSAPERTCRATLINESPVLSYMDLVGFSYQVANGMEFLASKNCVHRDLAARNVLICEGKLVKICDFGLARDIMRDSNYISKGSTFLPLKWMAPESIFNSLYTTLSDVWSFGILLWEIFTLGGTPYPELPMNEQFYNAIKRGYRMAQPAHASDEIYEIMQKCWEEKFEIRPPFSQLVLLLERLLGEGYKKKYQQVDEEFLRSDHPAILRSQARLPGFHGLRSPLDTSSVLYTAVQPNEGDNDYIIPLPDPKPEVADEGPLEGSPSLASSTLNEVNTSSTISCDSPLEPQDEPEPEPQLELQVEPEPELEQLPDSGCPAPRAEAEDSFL
Chain of PDGFR-β (P09619 33-1106): as the sequence (P09619 33-1106 limits assumed, change not shown) above
Chain of TEL-KIT fusion gene transfected cells (Ba/F3) (P10721 26-976 limits assumed, change not shown): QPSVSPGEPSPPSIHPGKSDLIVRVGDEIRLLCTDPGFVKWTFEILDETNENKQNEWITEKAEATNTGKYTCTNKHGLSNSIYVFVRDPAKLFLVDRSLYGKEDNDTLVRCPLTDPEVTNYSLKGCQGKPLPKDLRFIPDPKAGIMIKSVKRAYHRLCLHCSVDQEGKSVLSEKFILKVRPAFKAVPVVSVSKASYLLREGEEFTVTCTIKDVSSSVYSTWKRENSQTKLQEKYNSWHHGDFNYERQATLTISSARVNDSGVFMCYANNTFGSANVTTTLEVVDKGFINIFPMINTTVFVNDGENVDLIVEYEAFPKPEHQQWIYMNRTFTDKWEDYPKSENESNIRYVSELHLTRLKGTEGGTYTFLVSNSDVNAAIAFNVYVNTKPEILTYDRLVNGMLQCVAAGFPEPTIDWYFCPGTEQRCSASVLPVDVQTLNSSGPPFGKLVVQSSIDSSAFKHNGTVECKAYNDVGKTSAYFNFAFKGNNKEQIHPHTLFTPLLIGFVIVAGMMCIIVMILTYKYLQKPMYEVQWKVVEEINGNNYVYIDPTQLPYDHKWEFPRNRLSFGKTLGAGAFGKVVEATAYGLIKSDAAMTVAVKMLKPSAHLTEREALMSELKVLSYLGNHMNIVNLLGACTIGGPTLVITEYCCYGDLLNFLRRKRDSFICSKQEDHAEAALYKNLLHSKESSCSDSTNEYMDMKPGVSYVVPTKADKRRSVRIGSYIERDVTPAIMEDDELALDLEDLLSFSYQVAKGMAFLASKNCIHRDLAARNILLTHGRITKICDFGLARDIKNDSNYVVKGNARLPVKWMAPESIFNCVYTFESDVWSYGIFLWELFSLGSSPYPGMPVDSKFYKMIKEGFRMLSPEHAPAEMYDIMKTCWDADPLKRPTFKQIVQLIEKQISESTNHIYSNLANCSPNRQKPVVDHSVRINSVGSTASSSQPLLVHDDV

As to `Cc1ccc(C(=O)N[C@H]2CCCC[C@@H]2O)cc1NC(=O)c1cnc(NC2CC(F)(F)C2)s1` [Example 25, 2-[(3,3-difluorocyclobutyl)amino]-N-(5-{[(1S,2S)-2-hydroxycyclohexyl]carbamoyl}-2-methylphenyl)-1,3-thiazole-5-carboxamide], the IC50 in test [1] was over 10000 nM; in test [2], 50 nM; at PDGFR-β, 39 nM; in test [3] (setting [4]), 230 nM.
For the molecule `Cc1ccc(C(=O)N[C@H]2CCCC[C@@H]2O)cc1NCc1cnc(NC2CC2)nc1` [Example 114, 3-({[2-(cyclopropylamino)pyrimidin-5-yl]methyl}amino)-N-[(1S,2S)-2-hydroxycyclohexyl]-4-methylbenzamide], the IC50 in test [1] is 960 nM; in test [2], 2.7 nM; on PDGFR-β, 270 nM; in test [3] (setting [5]), 190 nM.
Consider `Cc1ccc(C(=O)N[C@H]2CCCC[C@@H]2O)cc1NC(=O)c1cncc(-c2ccccc2)c1` [Example 2, N-(5-{[(1S,2S)-2-hydroxycyclohexyl]carbamoyl}-2-methylphenyl)-5-phenylpyridine-3-carboxamide], for which the IC50 in test [1] is 200 nM; in test [2], 3.6 nM; on PDGFR-β, 22 nM; in test [3] (setting [4]) it was 23 nM.
As to `Cc1ccc(C(=O)N[C@@H](CO)[C@@H](O)c2ccccc2)cc1CNc1cncc(C2CC2)c1` [Example 154, 3-{[(5-cyclopropylpyridin-3-yl)amino]methyl}-N-[(1S,2S)-1,3-dihydroxy-1-phenylpropan-2-yl]-4-methylbenzamide], the IC50 in test [1] is over 10000 nM; in test [2], 230 nM; at PDGFR-β it was 340 nM; in test [3] (setting [5]) it was 98 nM.
Turning to `Cc1ccc(C(=O)N[C@H]2CCCC[C@@H]2O)cc1NCc1cnn(-c2ccccn2)c1` [Example 112, N-[(1S,2S)-2-hydroxycyclohexyl]-4-methyl-3-({[1-(pyridin-2-yl)-1H-pyrazol-4-yl]methyl}amino)benzamide], the IC50 in test [1] came to 250 nM; in test [2], 1.3 nM; at PDGFR-β, 39 nM; in test [3] (setting [5]), 26 nM.
For the molecule `Cc1ccc(C(=O)N[C@@H](CO)[C@@H](O)c2ccccc2)cc1CNc1cncc(-c2ccccc2)c1` [Example 153, N-[(1S,2S)-1,3-dihydroxy-1-phenylpropan-2-yl]-4-methyl-3-{[(5-phenylpyridin-3-yl)amino]methyl}benzamide], the IC50 came out at 7000 nM in test [1], 27 nM in test [2], 88 nM on PDGFR-β and 62 nM in test [3] (setting [5]).
Take `COc1ccc(-c2cncc(C(=O)Nc3cc(C(=O)N[C@H]4CCCC[C@@H]4O)ccc3C)c2)cc1` [Example 18, N-(5-{[(1S,2S)-2-hydroxycyclohexyl]carbamoyl}-2-methylphenyl)-5-(4-methoxyphenyl)pyridine-3-carboxamide]: the IC50 in test [1] amounted to 530 nM; in test [2], 20 nM; on PDGFR-β, 39 nM; in test [3] (setting [4]), 47 nM.
Consider `Cc1ccc(C(=O)N[C@H]2CCCC[C@@H]2O)cc1NC(=O)c1cncc(-c2ccc(C3CC3)cc2)c1` [Example 43, 5-(4-cyclopropylphenyl)-N-(5-{[(1S,2S)-2-hydroxycyclohexyl]carbamoyl}-2-methylphenyl)pyridine-3-carboxamide], for which the IC50 in test [1] came out at 640 nM; in test [2] it was 17 nM; on PDGFR-β it was 23 nM; in test [3] (setting [5]), 72 nM.
As to `Cc1ccc(C(=O)N[C@H]2CCCC[C@@H]2O)cc1COc1cncc(-c2ncccn2)c1` [Example 169, N-[(1S,2S)-2-hydroxycyclohexyl]-4-methyl-3-({[5-(pyrimidin-2-yl)pyridin-3-yl]oxy}methyl)benzamide], the IC50 was found to be 400 nM in test [1], 4 nM in test [2], 52 nM on PDGFR-β and 43 nM in test [3] (setting [5]).
On the same counts, the results for `Cc1cncc(C#Cc2cc(C(=O)N[C@H]3CCCC[C@@H]3O)ccc2C)c1` [Example 59, N-[(1S,2S)-2-hydroxycyclohexyl]-4-methyl-3-[(5-methylpyridin-3-yl)ethynyl]benzamide] are 500 nM, 27 nM, 210 nM and 93 nM.
Regarding `Cc1ccc(C(=O)N[C@H]2CCCC[C@@H]2O)cc1NC(=O)c1cncc(-c2ccccc2Cl)c1` [Example 13, 5-(2-chlorophenyl)-N-(5-{[(1S,2S)-2-hydroxycyclohexyl]carbamoyl}-2-methylphenyl)pyridine-3-carboxamide], the IC50 was 790 nM in test [1], 17 nM in test [2], 140 nM on PDGFR-β and 100 nM in test [3] (setting [4]).
Take `Cc1ccc(C(=O)N[C@H]2CCCC[C@@H]2O)cc1C#Cc1cncc(-c2cccc(F)c2)n1` [Example 70, 3-{[6-(3-fluorophenyl)pyrazin-2-yl]ethynyl}-N-[(1S,2S)-2-hydroxycyclohexyl]-4-methylbenzamide]: the IC50 in test [1] is 300 nM; in test [2], 1.8 nM; at PDGFR-β it was 20 nM; in test [3] (setting [5]), 50 nM.
Turning to `Cc1ccc(C(=O)N[C@H]2CCCC[C@@H]2O)cc1Nc1ccnc(-c2cccnc2)n1` [Example 78, N-[(1S,2S)-2-hydroxycyclohexyl]-4-methyl-3-{[2-(pyridin-3-yl)pyrimidin-4-yl]amino}benzamide], the IC50 was 570 nM in test [1], 27 nM in test [2], 51 nM on PDGFR-β and 150 nM in test [3] (setting [5]).
Regarding `Cc1ccc(C(=O)N[C@H]2CCCC[C@@H]2O)cc1NC(=O)c1cncc(-c2ccc(Cl)cc2)c1` [Example 9, 5-(4-chlorophenyl)-N-(5-{[(1S,2S)-2-hydroxycyclohexyl]carbamoyl}-2-methylphenyl)pyridine-3-carboxamide], the IC50 is 530 nM in test [1], 22 nM in test [2], 26 nM at PDGFR-β and 46 nM in test [3] (setting [4]).
On the same counts, the results for `Cc1ccc(C(=O)N[C@H]2CCCC[C@@H]2O)cc1NC(=O)c1cncc(NC2CC2)c1` [Example 4, 5-(cyclopropylamino)-N-(5-{[(1S,2S)-2-hydroxycyclohexyl]carbamoyl}-2-methylphenyl)pyridine-3-carboxamide] are 1500 nM, 26 nM, 4.9 nM and 220 nM.
Take `Cc1ccc(C(=O)N[C@H]2CCCC[C@@H]2O)cc1NC(=O)c1cncc(NCC2CC2)c1` [Example 16, 5-[(cyclopropylmethyl)amino]-N-(5-{[(1S,2S)-2-hydroxycyclohexyl]carbamoyl}-2-methylphenyl)pyridine-3-carboxamide]: the IC50 in test [1] came to 1300 nM; in test [2], 130 nM; at PDGFR-β, 22 nM; in test [3] (setting [4]), 81 nM.
As to `C[C@H](Nc1cc(C(=O)N[C@H]2CCCC[C@@H]2O)ccc1Cl)c1cncc(-c2cccnc2)c1` [Example 90, 3-{[(1S)-1-([3,3′-bipyridin]-5-yl)ethyl]amino}-4-chloro-N-[(1S,2S)-2-hydroxycyclohexyl]benzamide], the IC50 in test [1] is 8300 nM; in test [2] it was 35 nM; on PDGFR-β, 310 nM; in test [3] (setting [5]) it was 360 nM.
